pIC50: −log10 of the molar value.

The assay deals with human CRTH2 receptor (Homo sapiens (Human), UniProt Q9Y5Y4). Briefly: Calcium Flux Assay Using Fluorometric Imaging Plate Reader (FLIPR). The class given is cell-based. To be noted: CHO-K1 cells transfected with G-alpha 16 and human CRTH2 receptor; DK-PGD2 ligand; 1 hour compound incubation. As to the method: Calcium Flux Assay Using Fluorometric Imaging Plate Reader (FLIPR)
Chain of human CRTH2 receptor (Q9Y5Y4 whole entry): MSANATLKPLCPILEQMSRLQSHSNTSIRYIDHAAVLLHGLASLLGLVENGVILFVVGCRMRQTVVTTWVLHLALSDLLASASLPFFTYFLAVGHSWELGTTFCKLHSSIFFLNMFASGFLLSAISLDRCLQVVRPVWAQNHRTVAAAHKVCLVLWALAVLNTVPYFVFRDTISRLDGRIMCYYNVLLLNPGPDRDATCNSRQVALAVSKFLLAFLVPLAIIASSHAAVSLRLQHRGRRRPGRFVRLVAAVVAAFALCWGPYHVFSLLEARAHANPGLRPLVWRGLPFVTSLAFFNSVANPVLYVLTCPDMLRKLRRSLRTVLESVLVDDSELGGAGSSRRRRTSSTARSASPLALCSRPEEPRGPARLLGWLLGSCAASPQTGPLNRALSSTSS
CHO-K1 cells previously transfected with G-alpha 16 were subsequently transfected with the human CRTH2 receptor and the neomycin resistance gene. Following selection in 800 μg/mL G418 (geneticin), individual clones were assayed for their receptor expression based on staining with an anti human CRTH2 IgG, followed by assaying for their response to 13,14-dihydro-15-keto Prostaglandin D2 (DK-PDG2) (ligand) in the Ca^2+ Flux assay. Positive clones were then cloned by limiting dilution cloning. The transfected cells were cultured in Ham's F-12 medium supplemented with 10% fetal bovine serum, 2 mM glutamine, 100 U/mL penicillin/100 μg/mL streptomycin, 200 μg/mL hygromycin B, and 800 μg/mL G418 (geneticin). Cells were harvested with trypsin-EDTA (trypsin-ethylenediaminetetraacetic acid) and counted using ViaCount® reagent (from Guava Technologies, Inc. which contains two DNA-binding dyes that enable the reagent user to distinguish between viable and non-viable cells). The cell suspension volume was adjusted to 2.5×10^5 cells/mL with complete growth media. Aliquots of 50 μL were dispensed into BD Falcon™ 384 well black/clear microplates (from BD Biosciences, a division of Becton, Dickinson and Company) and the microplates were placed in a 37° C. CO2 incubator overnight. The following day, the microplates were used in the assay.
Loading Buffer containing dye (from the FLIPR® Calcium 3 Assay Kit from Molecular Devices, a division of MDS Analytical Technologies and MDS Inc.) was prepared by dissolving the contents of one bottle into 200 mL Hank's Balanced Salt Solution containing 20 mM HEPES (4-(2-hydroxyethyl)-1-piperazineethanesulfonic acid) and 2.5 mM probenecid. Growth media was removed from the cell plates and 25 μL of Hank's Balanced Salt Solution (HBSS) containing 20 mM HEPES, 0.05% BSA and 2.5 mM probenecid was added to each well followed by 25 μL of diluted dye using a Multidrop dispenser. The plates were then incubated for 1 hour at 37° C.
During the incubation, test compound plates were prepared by adding 90 μL of HBSS/20 mM HEPES/0.005% BSA buffer to the 2 μL of serial diluted compounds. To prepare serial diluted compounds, 20 mM stocks of compounds were dissolved in 100% DMSO. The compound dilution plate was set up as follows: well #1 received 5 μL of compound plus 10 μL of DMSO. Wells 2-10 received 10 μL of DMSO. 5 μL was mixed and transferred from well #1 into well #2. 1:3 serial dilutions were continued out 10 steps. 2 μL of diluted compound was transferred into duplicate wells of a 384 well “assay plate” and then 90 μL of buffer was added.
After incubation, both the cell and “assay plate” plates were brought to the fluorometric imaging plate reader (FLIPR®) and 20 μL of the diluted compounds were transferred to the cell plates by the FLIPR®. Plates were then incubated for 1 hour at room temperature. After the 1 hour incubation, plates were returned to the FLIPR® and 20 μL of 4.5× concentrated ligand was added to the cell plates. During the assay, fluorescence readings were taken simultaneously from all 384 wells of the cell plate every 1.5 seconds. Five readings were taken to establish a stable baseline, then 20 μL of sample was rapidly (30 μL/sec) and simultaneously added to each well of the cell plate. The fluorescence was continuously monitored before, during and after sample addition for a total elapsed time of 100 seconds. Responses (increase in peak fluorescence) in each well following agonist addition were determined. The initial fluorescence reading from each well, prior to ligand stimulation, was used as a zero baseline value for the data from that well. The responses were expressed as % inhibition of the buffer control. […]
With `O=C(O)Cc1cc(C2CCN(S(=O)(=O)c3ccccc3)CC2)c2cc(F)ccc2c1` [Example 1, [4-(1-Benzenesulfonyl-piperidin-4-yl)-6-fluoro-naphthalen-2-yl]-acetic acid], the pIC50 was 7.74.
For `Cc1ccc(S(=O)(=O)N2CCC(c3cc(CC(=O)O)cc4ccc(F)cc34)CC2)cc1` [Example 2, {6-Fluoro-4-[1-(toluene-4-sulfonyl)-piperidin-4-yl]-naphthalen-2-yl}-acetic acid] the value was 7.28; for `O=C(O)Cc1cc(C2CCN(S(=O)(=O)c3ccccn3)CC2)c2cc(F)ccc2c1` [Example 3, {6-Fluoro-4-[1-(pyridine-2-sulfonyl)-piperidin-4-yl]-naphthalen-2-yl}-acetic acid], 6.98.
For `O=C(O)Cc1cc(C2CCN(S(=O)(=O)c3cccnc3)CC2)c2cc(F)ccc2c1` [Example 4, {6-Fluoro-4-[1-(pyridine-3-sulfonyl)-piperidin-4-yl]-naphthalen-2-yl}-acetic acid] the value was 5.76.
As to `O=C(O)Cc1cc(C2CCN(S(=O)(=O)c3ccncc3)CC2)c2cc(F)ccc2c1` [Example 5, {6-Fluoro-4-[1-(pyridine-4-sulfonyl)-piperidin-4-yl]-naphthalen-2-yl}-acetic acid], the pIC50 was 6.05.
For `O=C(O)Cc1cc(C2CCN(S(=O)(=O)c3ccccc3Cl)CC2)c2cc(F)ccc2c1` [Example 6, {4-[1-(2-Chloro-benzenesulfonyl)-piperidin-4-yl]-6-fluoro-naphthalen-2-yl}-acetic acid] the value was 8.60; for `O=C(O)Cc1cc(C2CCN(S(=O)(=O)c3cccc(Cl)c3)CC2)c2cc(F)ccc2c1` [Example 7, {4-[1-(3-Chloro-benzenesulfonyl)-piperidin-4-yl]-6-fluoro-naphthalen-2-yl}-acetic acid], 7.02; for `O=C(O)Cc1cc(C2CCN(S(=O)(=O)c3ccc(Cl)cc3)CC2)c2cc(F)ccc2c1` [Example 8, {4-[1-(4-Chloro-benzenesulfonyl)-piperidin-4-yl]-6-fluoro-naphthalen-2-yl}-acetic acid], 7.38.
Take `CS(=O)(=O)c1cccc(S(=O)(=O)N2CCC(c3cc(CC(=O)O)cc4ccc(F)cc34)CC2)c1` [Example 9, {6-Fluoro-4-[1-(3-methanesulfonyl-benzenesulfonyl)-piperidin-4-yl]-naphthalen-2-yl}-acetic acid]: the pIC50 was 5.94.
The figure for `O=C(O)Cc1cc(C2CCN(S(=O)(=O)c3cc(Cl)ccc3Cl)CC2)c2cc(F)ccc2c1` [Example 10, {4-[1-(2,5-Dichloro-benzenesulfonyl)-piperidin-4-yl]-6-fluoro-naphthalen-2-yl}-acetic acid] is 8.46; for `O=C(O)Cc1cc(C2CCN(S(=O)(=O)c3ccc(Cl)cc3Cl)CC2)c2cc(F)ccc2c1` [Example 11, {4-[1-(2,4-Dichloro-benzenesulfonyl)-piperidin-4-yl]-6-fluoro-naphthalen-2-yl}-acetic acid] it is 8.32.
The figure for `O=C(O)Cc1cc(C2CCN(S(=O)(=O)c3cc(Cl)cc(Cl)c3)CC2)c2cc(F)ccc2c1` [Example 12, {4-[1-(3,5-Dichloro-benzenesulfonyl)-piperidin-4-yl]-6-fluoro-naphthalen-2-yl}-acetic acid] is 6.39; for `O=C(O)Cc1cc(C2CCN(S(=O)(=O)c3cc(C(F)(F)F)cc(C(F)(F)F)c3)CC2)c2cc(F)ccc2c1` [Example 13, {4-[1-(3,5-Bis-trifluoromethyl-benzenesulfonyl)-piperidin-4-yl]-6-fluoro-naphthalen-2-yl}-acetic acid] it is 5.87.
